Article PMC5018819 (Scientific Reports, 2016)
Read-outs that look alike come from different tables or passages of the source.

What was measured:
[1] = system: P. falciparum 3D7; assay: ES-MS and ES-MS-MS lipidomic analysis of treated parasites; format: cell-based, Plasmodium falciparum; conditions: EC90 for 3 h; for effect on level of PC species: parents of 184 m/z spectra; for effect on endogenous PE species (in words): quantitative lipidomic analysis
Method: After washing, P. falciparum trophozoites were cultured for 18h without inhibitors, collected, treated with saponin to release the parasites from the red blood cells, and washed twice with PBS prior to Bligh & Dyer lipid extraction. Briefly, 5 × 10^8 parasite cells were dissolved in 375 μl 1:2 (v/v) chloroform:methanol and vigorously vortexed for 15 min. 125 μl of chloroform were added and 500 pmols of 1,2-dimyristoyl-sn-glycero-3-phosphocholine and 1,2-dipalmitoyl-sn-glycero-3-phosphoethanolamine were included in each sample as internal controls. 125 μl of water were added to the sample, vortexed and centrifuged at ×1000 g (RT) for 5 min to make the sample biphasic. Lower organic phase was collected and upper (aqueous) phase was re-extracted twice with 125 μls of chloroform. Lipid extracts were pooled, dried under nitrogen and stored at 4 °C for ESI-MS/MS analysis.
Lipid extracts, were dissolved in 15 μl of choloroform:methanol (1:2) and 15 μl of acetonitrile:iso-propanol:water (6:7:2) and analysed with a Absceix 4000 QTrap, a triple quadrupole mass spectrometer equipped with a nanoelectrospray source. Samples were delivered using a Nanomate interface in direct infusion mode (~125 nl/min). The lipid extracts were analysed in both positive and negative ion modes using a capillary voltage of 1.25 kV. MS/MS scanning (daughter, precursor and neutral loss scans) were performed using nitrogen as the collision gas with collision energies between 35–90 V. Each spectrum encompasses at least 50 repetitive scans. Tandem mass spectra (MS/MS) were obtained with collision energies between 35–90 V. Assignment of phospholipid and neutral lipid species is based upon a combination of survey, daughter, precursor and neutral loss scans, as well previous assignments. The identity of phospholipid peaks was verified using the LIPID MAPS: Nature Lipidomics Gateway (www.lipidmaps.org).

[2] = system: P. falciparum 3D7; assay: microscopy of tightly synchronized asexual blood stage culture; format: cell-based, Plasmodium falciparum; conditions: EC90; synchronized ring stage parasites 6–12 hours post invasion
Method: P. falciparum 3D7 was cultured according to standard methods, and a 6 hours window was achieved by a combination of Percoll and sorbitol synchronizations. Briefly, schizonts and late trophozoites were isolated from earlier stages according to their density by centrifugation on a continuous gradient of 60% Percoll. The resulting schizonts were allowed to invade uninfected red blood cells for 6 hours and newly infected red blood cells were subjected to a 5% sorbitol treatment for 10 minutes at 37 °C. […] Thin blood smears were Giemsa stained every 6 hours until an entire intraerythrocytic cycle was completed.

[3] = target: T1, HsCKα1 (Homo sapiens, UniProt P35790); assay: IC50 determination, spectrophotometric CK/EK enzyme assay; format: biochemical; conditions: 0.5 mM each substrate
T1 construct: made in house
T1 sequence (P35790 whole entry): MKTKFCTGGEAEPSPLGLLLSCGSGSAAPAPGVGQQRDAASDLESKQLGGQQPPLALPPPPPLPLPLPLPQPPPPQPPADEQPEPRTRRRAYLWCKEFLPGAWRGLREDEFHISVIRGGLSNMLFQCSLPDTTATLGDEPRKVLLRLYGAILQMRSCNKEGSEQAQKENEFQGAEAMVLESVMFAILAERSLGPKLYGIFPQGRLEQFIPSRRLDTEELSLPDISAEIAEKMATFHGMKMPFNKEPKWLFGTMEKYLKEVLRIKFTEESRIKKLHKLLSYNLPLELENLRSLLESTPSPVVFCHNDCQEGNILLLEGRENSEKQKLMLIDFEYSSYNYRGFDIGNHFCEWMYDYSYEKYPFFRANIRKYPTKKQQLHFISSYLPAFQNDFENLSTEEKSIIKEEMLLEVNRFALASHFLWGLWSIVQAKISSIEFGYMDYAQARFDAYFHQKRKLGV
Method: (§1) A continuous spectrophotometric 96-well plate assay was established for CK and EK activity based on an assay described. […] The reaction was initiated by addition of enzyme or substrate, as appropriate, and the rate of reaction was monitored by following the decrease in absorbance at 341 nm for 10 min at room temperature using a Thermo Multiska spectrophotometer. Experiments were carried out to ensure that coupling enzymes were not rate-limiting under any of the conditions used and control experiments lacking substrates and/or enzyme were carried out to correct for any background rate.
(§2) The enzyme was pre-incubated for 5 min with varying concentrations of inhibitor prior to reaction being started by addition of 0.5 mM each substrate. The IC50 values were estimated using Grafit 5 (Erithacus Software Ltd).

[4] = target: T2, PfEK (Plasmodium falciparum, UniProt Q8IIB7); assay: IC50 determination, spectrophotometric EK enzyme assay; format: biochemical, P. falciparum; conditions: for IC50: Etn as substrate, 0.5 mM each substrate
T2 sequence (Q8IIB7 2-420): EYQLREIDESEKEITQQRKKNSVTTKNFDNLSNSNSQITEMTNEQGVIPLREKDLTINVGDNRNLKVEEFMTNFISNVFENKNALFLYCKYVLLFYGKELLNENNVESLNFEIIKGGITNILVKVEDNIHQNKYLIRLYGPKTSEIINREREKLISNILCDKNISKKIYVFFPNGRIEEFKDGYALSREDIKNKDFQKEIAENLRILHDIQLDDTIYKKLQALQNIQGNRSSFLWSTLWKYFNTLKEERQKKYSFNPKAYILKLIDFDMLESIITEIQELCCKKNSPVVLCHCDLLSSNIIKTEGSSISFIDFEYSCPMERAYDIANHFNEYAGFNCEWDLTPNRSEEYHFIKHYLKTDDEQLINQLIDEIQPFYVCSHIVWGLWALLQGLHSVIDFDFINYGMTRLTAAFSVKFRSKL
Method: as §1, §2

[5] = target: T1, HsCKα1; assay: Ki determination and mode of inhibition; format: biochemical; conditions: for α, HsCKα1, ATP / α, HsCKα1, Cho: alpha factor of mixed inhibition
Method: as §1
(§3) Activity was measured at 3–4 different concentrations of inhibitor and a fixed concentration of one substrate (as specified in the standard assay) while the second substrate was varied. GraphPad Prism 6 (GraphPad Software Inc.) was used to fit data to different inhibition models with the best fit being determined by Aike’s Informative Criteria. Kis were estimated from the best-fit model and results were reinforced by linear re-plots of the data (Lineweaver Burke, Dixon, s/v against I)[38].

[6] = target: T3, PfCK (Plasmodium falciparum, UniProt Q8IM71); assay: Ki determination and mode of inhibition; format: biochemical
T3 construct: made in house
T3 sequence (Q8IM71 1-440): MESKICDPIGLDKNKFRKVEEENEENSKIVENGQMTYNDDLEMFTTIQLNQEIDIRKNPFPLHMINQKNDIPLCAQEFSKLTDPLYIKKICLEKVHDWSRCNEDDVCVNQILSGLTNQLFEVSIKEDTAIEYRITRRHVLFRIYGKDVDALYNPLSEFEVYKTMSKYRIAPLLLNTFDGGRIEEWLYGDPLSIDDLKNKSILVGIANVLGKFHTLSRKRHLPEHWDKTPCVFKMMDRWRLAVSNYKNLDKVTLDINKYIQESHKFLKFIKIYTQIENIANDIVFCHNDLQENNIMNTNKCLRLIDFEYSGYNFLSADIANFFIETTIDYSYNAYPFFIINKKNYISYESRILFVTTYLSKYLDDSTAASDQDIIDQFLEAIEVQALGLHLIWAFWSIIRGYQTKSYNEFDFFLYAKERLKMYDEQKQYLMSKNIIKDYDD
Method: as §1, §3

[7] = system: P. falciparum; design: method as in PMID 25089811; conditions: blood stages of the parasite, in vitro; read-out: IC50 against P. falciparum; cited from earlier work
[8] = Etn as substrate, read-out: IC50 HsCK, Etn
[9] = read-out: IC50 HsCK, Cho, Cho as substrate
[10] = ATP as variable substrate, read-out: Ki, HsCKα1, ATP
[11] = read-out: Ki, HsCKα1, Cho, Cho as variable substrate
[12] = read-out: Ki, HsCKα1, with respect to Cho, mixed inhibition, approximate value
[13] = ATP as variable substrate, read-out: Ki, PfCK, ATP
[14] = Etn as variable substrate, read-out: Ki, PfCK, Etn
[15] = alpha factor of mixed inhibition, Cho as variable substrate
[16] = competitive inhibition, approximate value, read-out: Ki, PfCK, with respect to Etn
[17] = read-out: Ki, PfCK, Cho, Cho as variable substrate
[18] = read-out: Ki, PfCK, against Cho, mixed inhibition, approximate value

Row | SMILES | effect on level of PC species [1] | effect on endogenous PE species (in words) [1] | effect on parasite development [2] | IC50 [3, 8] [µM] | IC50 [3, 9] [µM] | inhibition towards PfEK (in words) [4] | IC50 [4] [µM] | mode of inhibition, HsCKα1, ATP ([5]; ATP as variable substrate) | Ki [5, 10] [µM] | mode of inhibition, HsCKα1, Cho ([5]; Cho as variable substrate) | α, HsCKα1, ATP ([5]; ATP as variable substrate) | α, HsCKα1, Cho ([5]; Cho as variable substrate) | Ki [5, 11] [µM] | Ki [5, 12] [µM] | mode of inhibition, PfCK, ATP ([6]; ATP as variable substrate) | Ki [6, 13] [µM] | mode of inhibition, PfCK, Cho ([6]; Cho as variable substrate) | mode of inhibition, PfCK, Etn ([6]; Etn as variable substrate) | Ki [6, 14] [µM] | α, PfCK, Cho [6, 15] | also measured
1 | CN(C)c1cc[n+](Cc2ccc(-c3ccc(C[n+]4ccc(N5CCCC5)cc4)cc3)cc2)cc1.[Br-].[Br-] [BR23] | do not affect | significant reduction | arrest of parasite development | 0.23 | 0.58 | neither BR23 nor BR25 showed any inhibition | > 500 | Mixed | 3.7 | Mixed | 0.73 | 59 | 0.114 | ~0.1 | Competitive | 116 | Mixed | Competitive | 4.1 | 3.915 | reduction of endogenous PE species ([1]; ES-MS-MS parents of 196 m/z, internal PE standard): > 90%; Ki ([5]; mixed inhibition, approximate value, read-out: Ki, HsCKα1, with respect to ATP): ~4 µM; Ki [6, 16]: ~4 µM; Ki [6, 17]: 38.2 µM; Ki [6, 18]: ~35 µM; IC50 [7]: 0.003 µM
2 | CN(C)c1cc[n+](Cc2ccc(CCCCc3ccc(C[n+]4ccc(N5CCCC5)cc4)cc3)cc2)cc1.[Br-].[Br-] [BR25] | do not affect | almost complete loss | arrest of parasite development | 0.18 | 0.56 | neither BR23 nor BR25 showed any inhibition | > 500 | Mixed | 4.1 | Mixed | 0.49 | 139 | 0.1 | ~0.1 | Mixed | 65.5 | Mixed | Competitive | 4 | 2.025 | α, PfCK, ATP ([6]; alpha factor of mixed inhibition, ATP as variable substrate): 2.37; Ki [6, 16]: ~4 µM; Ki [6, 17]: 31.9 µM; Ki [6, 18]: ~35 µM; IC50 [7]: 0.002 µM
